Data published in article PMC12799421, “Inhibition of constitutive activity of the atypical chemokine receptor 3 by the small-molecule inverse agonist VUF16840” (Molecular Pharmacology, 2025).
Read-outs that look alike come from different tables or passages of the source.

Columns and labels:
HA-hACKR3 = target: T1, HA-hACKR3 (Homo sapiens, UniProt P25106); assay: [3H]VUF15485 radioligand binding assay; details: 2 nM [3H]VUF15485, HEK293T membranes
T1 construct: expressed in transfected cells; host or cells: HEK293T (membranes, transient expression)
Method: Membranes of HEK293T cells that transiently expressed the NLuc-hACKR3 or HA-hACKR3 were produced as previously described.[23] Briefly, 2 million HEK293T cells were seeded per […] and were transfected the following day using a DNA/PEI-mix containing 0.25 μg plasmid DNA encoding for the ACKR3, 4.75 μg pcDEF3 plasmid DNA and 30 μg linear PEI. Two days after transfection, cells were collected in PBS (137 mM NaCl, 2.57 mM KCl, 1.5 mM KH2PO4, 8 mM Na2HPO4) and pelleted by centrifugation. Cell pellets were resuspended in ice-cold membrane buffer (15 mM Tris, 0.3 mM EDTA, 2 mM MgCl2, pH 7.4 at 4 °C) and dounce-homogenized on ice by plunging the pestle 10 times with 1500 rpm. Cell homogenates were subsequently subjected to 2 freeze-thaw cycles using liquid nitrogen. Next, the cell homogenates were centrifuged at 40,000 g and pellets were resuspended in Tris-sucrose buffer (20 mM Tris, 250 mM sucrose, pH 7.4 at 4 °C). […]
Radioligand binding studies were performed as described earlier.[23] […] Filter-bound [^3H]VUF15485 was measured by adding 25 μL MicroScint-O per well to the dried GF/C-plate and radioactivity was quantified using the Wallac Microbeta counter (Perkin Elmer).
The sigmoidal concentration-dependent displacement of binding of the probes [^3H]VUF15485 and CXCL12-A647 by unlabeled ligands were analyzed using GraphPad Prism 8, by fitting a one-site binding model to the data, to determine the pIC50. Mean pIC50 values were determined by averaging fitted values from individual experiments. […] Similarly, sigmoidal, ligand-induced concentration-dependent activation or inhibition of the proximity between ACKR3 and the protein of interest was analyzed using GraphPad Prism 8, by fitting a 3-parameter concentration-response model to the data, to determine pEC50/pIC50 values. Mean pEC50 values and pIC50 values were determined by averaging fitted values from individual experiments. […]
The ACKR3 ligand VUF16840 was evaluated for its binding to hACKR3 in different competition binding assay formats (Fig. 1). […]

[1] = test system: panel of 19 human chemokine receptors; assay: NanoBiT-complementation based chemokine receptor screen (agonist and antagonist mode); type: cell-based
Method: The pharmacological modulation of all chemokine receptors by VUF16840 was performed according to an established method.[8]^,[23]^,[39] Briefly, β-arrestin2 recruitment to chemokine receptors in response to 1 μM VUF16840 or positive control chemokines was monitored by NanoLuc complementation assay (NanoBiT, Promega). Four hours after transfection, cells were harvested, incubated for 25 minutes at 37 °C with furimazine and distributed into a white 96-well plates (1 × 10^5 cells per well). β-Arrestin2 recruitment was then detected for 20 minutes upon treatment with 1 μM VUF16840 (or increasing concentrations ligand for experiments with CC chemokine receptor [CCR3]) using the Mithras LB940 luminometer (Berthold Technologies). To evaluate the antagonist properties of VUF16840, full agonists of each receptor were added after the 20-minute incubation with VUF16840. Signal from wells treated with full agonist only was defined as 100% activity and signals from wells treated with no agonist were used to set 0% activity. […]
Fig. 4 Modulation of a panel of chemokine receptors by VUF16840. β-Arrestin2 recruitment toward a full panel of 19 chemokine receptor was measured using a NLuc complementation assay in HEK293T cells. […]

[2] = read-out: IC50, displacement of [3H]VUF15485 binding from HA-hACKR3

T1 sequence (P25106 whole entry): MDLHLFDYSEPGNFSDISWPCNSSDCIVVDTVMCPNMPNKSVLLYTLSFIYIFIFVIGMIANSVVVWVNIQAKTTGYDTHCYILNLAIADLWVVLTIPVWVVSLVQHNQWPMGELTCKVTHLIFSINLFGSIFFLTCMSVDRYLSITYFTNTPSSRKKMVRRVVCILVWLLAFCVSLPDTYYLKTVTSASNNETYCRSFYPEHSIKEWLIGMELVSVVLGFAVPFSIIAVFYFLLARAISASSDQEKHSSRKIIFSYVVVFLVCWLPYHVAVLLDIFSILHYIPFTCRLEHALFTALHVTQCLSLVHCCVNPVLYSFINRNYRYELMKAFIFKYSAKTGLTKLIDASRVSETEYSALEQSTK

| IC50 (HA-hACKR3; mean ± SD, read-out: pIC50, displacement of [3H]VUF15485 binding from HA-hACKR3 (converted)) [nM] | IC50 (HA-hACKR3; [2]) [nM] | Structure (SMILES) | agonist mode screen, modulation of β-arrestin2 recruitment ([1]; 1 μM VUF16840) | antagonist-mode inhibition of any tested chemokine receptor ([1]; 1 μM VUF16840 coincubated with respective endogenous agonist) [%] |
| --- | --- | --- | --- | --- |
| 0.794 | 0.7 | COc1ccccc1CCNC(=O)C1CN(C2CCCCC2)CCC1NC(=O)c1cc(-c2ccc(F)cc2F)on1 (centres unmarked) [VUF16840] | only modulated β-arrestin2 recruitment to hACKR3 and hCCR3 | ≤ 50 |
| – | 20 | COc1cc(C(=O)N(CCC2CCCN2C)CC(C)=Cc2ccccc2F)cc(OC)c1OC (centres unmarked) [VUF15485, reference compound] | – | – |
